Experimental data from patent publication US20130041330A1, “MICRO-NEEDLE DEVICE AND PREPARATION METHOD” (HISAMITSU PHARMACEUTICAL CO., INC., priority 2010, published 2013).

Experiments:
[1] = Viscosity measurement of octreotide acetate physiologically active composition (micron sample viscometer); format: physicochemical; conditions: 25° C.
Method: The octreotide acetate concentration and the propylene glycol or glycerin concentration were adjusted as shown in Table 3 and Table 4 to prepare a physiologically active composition. The viscosity of the obtained physiologically active composition was measured ten times with a micron sample viscometer (RHEOSENSE INC., Micron Sample-Viscometer/Rheometer-on-a-chip VROCTM), and the mean value was calculated to be shown in Table 3 and Table 4.

[2] = Viscosity imparting test in nonaqueous formulation (polymer compound solubility and viscosity); format: physicochemical; conditions: 25° C.
Method: With respect to each solvent of propylene glycol and glycerin, polymer compounds shown in Table 5 and Table 6 were added to prepare mixed solutions. Each concentration of the polymer compounds was designed in consideration of the molecular weight and the like. […] Separately, the viscosity of the mixed solution or the solution after the stirring was determined with a micron sample viscometer at 25° C.

Molecule	Viscosity Avg. ([1]; octreotide acetate 20 / glycerin 80 % by weight)	Viscosity Avg. ([1]; octreotide acetate 20 / propylene glycol 80 % by weight)	Viscosity Avg. ([1]; octreotide acetate 30 / glycerin 70 % by weight)	Viscosity Avg. ([1]; octreotide acetate 35 / glycerin 65 % by weight)	Viscosity Avg. ([1]; octreotide acetate 40 / glycerin 60 % by weight)	Viscosity Avg. ([1]; octreotide acetate 40 / propylene glycol 60 % by weight)	Viscosity Avg. ([1]; octreotide acetate 50 / glycerin 50 % by weight)	Viscosity Avg. ([1]; octreotide acetate 50 / propylene glycol 50 % by weight)	Viscosity Avg. ([1]; octreotide acetate 60 / glycerin 40 % by weight)	Viscosity Avg. ([1]; octreotide acetate 60 / propylene glycol 40 % by weight)	Viscosity Avg. ([1]; octreotide acetate 70 / propylene glycol 30 % by weight)	Viscosity Avg. ([1]; octreotide acetate 80 / propylene glycol 20 % by weight)	Viscosity ([2]; glycerin, additive concentration 0.5 % by mass)	Viscosity ([2]; propylene glycol, additive concentration 1.0 % by mass)
C[C@@H](O)[C@@H]1NC(=O)[C@H](CCCCN)NC(=O)[C@@H](Cc2c[nH]c3ccccc23)NC(=O)[C@H](Cc2ccccc2)NC(=O)[C@@H](NC(=O)[C@H](N)Cc2ccccc2)CSSC[C@@H](C(=O)N[C@H](CO)[C@@H](C)O)NC1=O [Octreotide acetate]	2,900 cps	200 cps	9,000 cps	12,000 cps	15,000 cps	1,600 cps	21,000 cps	5,400 cps	27,000 cps	15,000 cps	45,000 cps	133,000 cps	–	–
Protamine	–	–	–	–	–	–	–	–	–	–	–	–	1,442 mPa · s	53 mPa · s
